Assay: Safety and tolerability
Format: in vivo, human
[1] = 5 mg QD 14 days, healthy adults, 8 evaluable
[2] = 15 mg QD 14 days, healthy adults, 8 evaluable
[3] = 50 mg QD 14 days, healthy adults, 8 evaluable
[4] = 50 mg QD 14 days, healthy older subjects, 10 evaluable
[5] = 125 mg QD 14 days, healthy adults, 12 evaluable
[6] = 125 mg QD 14 days, healthy older subjects, 8 evaluable
[7] = 275 mg QD 14 days, healthy adults, 9 evaluable
[8] = single 3 mg, healthy adults, 5 evaluable
[9] = single 12 mg, healthy adults, 6 evaluable
[10] = single 40 mg, healthy adults, 6 evaluable
[11] = single 160 mg, healthy adults, 6 evaluable
[12] = single 200 mg fed, healthy adults, 6 evaluable
[13] = single 200 mg, healthy adults, 6 evaluable
[14] = single 400 mg, healthy adults, 6 evaluable
[15] = single 540 mg, healthy adults, 6 evaluable
[16] = studies B8271001 and B8271004 overall

C[C@H]1C[C@H]2CSC(N)=N[C@@]2(c2nc(NC(=O)c3ccc(OC(F)F)cn3)cs2)CO1 [PF-06751979]
2: Back pain, all-causality [5] | Procedural pain, all-causality [5] | Musculoskeletal discomfort, all-causality [7]
5: Number of subjects with AEs, treatment related [6] | Number of AEs, all-causality treatment-emergent [13]
3: Headache (MedDRA preferred term), all-causality [5] | Musculoskeletal discomfort, all-causality [5] | Number of AEs, treatment related [13] | Number of subjects with AEs, treatment related [15]
no clinically meaningful findings: Findings in ECGs or vital signs (studies B8271001 and B8271004)
1: Dizziness, all-causality [4] | Headache (MedDRA preferred term), all-causality [4] | Headache, treatment related [5] | Hepatic enzyme increased, all-causality [5] | Paresthesia, all-causality [5] | Headache (MedDRA preferred term), all-causality [7] | Number of AEs, all-causality treatment-emergent [8] | Number of subjects with AEs, all-causality [8]
11: Number of AEs, all-causality treatment-emergent [6]
4 (4): Number of subjects with AEs, all-causality [12] | Number of subjects with AEs, treatment related [12]
4: Number of subjects with AEs, treatment related [5] | Number of AEs, treatment related [12]
3 (3): Number of subjects with AEs, all-causality [13] | Number of subjects with AEs, treatment related [13]
9: Number of AEs, treatment related [4]
7.7 ×ULN: ALT peak, one subject (15 mg QD, Day 21)
22: Number of AEs, all-causality treatment-emergent [5]
2 (2): Number of AEs, all-causality treatment-emergent [2] | Number of AEs, treatment related [2] | Number of subjects with AEs, all-causality [2] | Number of subjects with AEs, treatment related [2] | Abnormal dreams, all-causality [4] | Abnormal dreams, treatment related [4] | Fatigue (MedDRA preferred term), all-causality [5] | Fatigue, treatment related [5] | Fatigue (MedDRA preferred term), all-causality [13] | Fatigue, treatment related [13] | Number of subjects with AEs, all-causality [14] | Number of subjects with AEs, treatment related [14] | Headache (MedDRA preferred term), all-causality [15] | Headache, treatment related [15]
5 (5): Number of AEs, all-causality treatment-emergent [14] | Number of AEs, treatment related [14]
10: Number of subjects with AEs, all-causality [5] | Number of AEs, all-causality treatment-emergent [15]
0: Back pain, all-causality [1] | Fatigue (MedDRA preferred term), all-causality [1] | Headache (MedDRA preferred term), all-causality [1] | Hepatic enzyme increased, all-causality [1] | Insomnia, all-causality [1] | Musculoskeletal discomfort, all-causality [1] | Number of subjects with SAEs [1] | Number of subjects with discontinuation due to AEs [1] | Number of subjects with severe AEs [1] | Number of subjects with temporary discontinuation or dose reduction due to AEs [1] | Paresthesia, all-causality [1] | Procedural pain, all-causality [1] | Back pain, all-causality [2] | Fatigue (MedDRA preferred term), all-causality [2] | Insomnia, all-causality [2] | Musculoskeletal discomfort, all-causality [2] | Number of subjects with SAEs [2] | Number of subjects with discontinuation due to AEs [2] | Number of subjects with severe AEs [2] | Number of subjects with temporary discontinuation or dose reduction due to AEs [2] | Paresthesia, all-causality [2] | Procedural pain, all-causality [2] | Back pain, all-causality [3] | Fatigue (MedDRA preferred term), all-causality [3] | Headache (MedDRA preferred term), all-causality [3] | Hepatic enzyme increased, all-causality [3] | Insomnia, all-causality [3] | Musculoskeletal discomfort, all-causality [3] | Number of subjects with SAEs [3] | Number of subjects with discontinuation due to AEs [3] | Number of subjects with severe AEs [3] | Number of subjects with temporary discontinuation or dose reduction due to AEs [3] | Paresthesia, all-causality [3] | Procedural pain, all-causality [3] | Dizziness, treatment related [4] | Headache, treatment related [4] | Number of subjects with SAEs [4] | Number of subjects with discontinuation due to AEs [4] | Number of subjects with severe AEs [4] | Number of subjects with temporary discontinuation or dose reduction due to AEs [4] | Back pain, treatment related [5] | Hepatic enzyme increased, treatment related [5] | Musculoskeletal discomfort, treatment related [5] | Number of subjects with SAEs [5] | Number of subjects with discontinuation due to AEs [5] | Number of subjects with severe AEs [5] | Number of subjects with temporary discontinuation or dose reduction due to AEs [5] | Paresthesia, treatment related [5] | Procedural pain, treatment related [5] | Abnormal dreams, all-causality [6] | Dizziness, all-causality [6] | Number of subjects with SAEs [6] | Number of subjects with discontinuation due to AEs [6] | Number of subjects with severe AEs [6] | Number of subjects with temporary discontinuation or dose reduction due to AEs [6] | Back pain, all-causality [7] | Fatigue (MedDRA preferred term), all-causality [7] | Headache, treatment related [7] | Insomnia, all-causality [7] | Musculoskeletal discomfort, treatment related [7] | Number of subjects with SAEs [7] | Number of subjects with severe AEs [7] | Number of subjects with temporary discontinuation or dose reduction due to AEs [7] | Procedural pain, all-causality [7] | Fatigue (MedDRA preferred term), all-causality [8] | Headache (MedDRA preferred term), all-causality [8] | Number of AEs, treatment related [8] | Number of subjects with AEs, treatment related [8] | Number of subjects with SAEs [8] | Number of subjects with discontinuation due to AEs [8] | Number of subjects with severe AEs [8] | Number of subjects with temporary discontinuation or dose reduction due to AEs [8] | Fatigue (MedDRA preferred term), all-causality [9] | Headache (MedDRA preferred term), all-causality [9] | Number of AEs, all-causality treatment-emergent [9] | Number of subjects with AEs, all-causality [9] | Number of subjects with SAEs [9] | Number of subjects with discontinuation due to AEs [9] | Number of subjects with severe AEs [9] | Number of subjects with temporary discontinuation or dose reduction due to AEs [9] | Fatigue (MedDRA preferred term), all-causality [10] | Headache (MedDRA preferred term), all-causality [10] | Number of AEs, all-causality treatment-emergent [10] | Number of subjects with AEs, all-causality [10] | Number of subjects with SAEs [10] | Number of subjects with discontinuation due to AEs [10] | Number of subjects with severe AEs [10] | Number of subjects with temporary discontinuation or dose reduction due to AEs [10] | Fatigue (MedDRA preferred term), all-causality [11] | Headache (MedDRA preferred term), all-causality [11] | Number of AEs, all-causality treatment-emergent [11] | Number of subjects with AEs, all-causality [11] | Number of subjects with SAEs [11] | Number of subjects with discontinuation due to AEs [11] | Number of subjects with severe AEs [11] | Number of subjects with temporary discontinuation or dose reduction due to AEs [11] | Headache (MedDRA preferred term), all-causality [12] | Number of subjects with SAEs [12] | Number of subjects with discontinuation due to AEs [12] | Number of subjects with severe AEs [12] | Number of subjects with temporary discontinuation or dose reduction due to AEs [12] | Headache (MedDRA preferred term), all-causality [13] | Number of subjects with SAEs [13] | Number of subjects with discontinuation due to AEs [13] | Number of subjects with severe AEs [13] | Number of subjects with temporary discontinuation or dose reduction due to AEs [13] | Fatigue (MedDRA preferred term), all-causality [14] | Number of subjects with SAEs [14] | Number of subjects with discontinuation due to AEs [14] | Number of subjects with severe AEs [14] | Number of subjects with temporary discontinuation or dose reduction due to AEs [14] | Fatigue (MedDRA preferred term), all-causality [15] | Number of subjects with SAEs [15] | Number of subjects with discontinuation due to AEs [15] | Number of subjects with severe AEs [15] | Number of subjects with temporary discontinuation or dose reduction due to AEs [15]
6: Number of subjects with AEs, treatment related [4] | Number of AEs, treatment related [5] | Number of subjects with AEs, all-causality [6] | Number of AEs, treatment related [15] | Number of subjects with AEs, all-causality [15]
5.6 ×ULN: AST peak, one subject (15 mg QD, Day 21)
13: Number of AEs, treatment related [7]
mild to moderate: Severity of TEAEs [16]
1.15 x ULN: AST elevation, one subject (275 mg QD, Day 14, after discontinuation on Day 11)
15: Number of AEs, all-causality treatment-emergent [4]
no SAEs or deaths were reported: SAEs or deaths [16]
moderate maculopapular rash: Rash leading to discontinuation, one subject (275 mg QD, 6 h post-dose on Day 11, deemed treatment related)
18: Number of AEs, all-causality treatment-emergent [7]
1 (1): Number of AEs, all-causality treatment-emergent [1] | Number of AEs, treatment related [1] | Number of subjects with AEs, all-causality [1] | Number of subjects with AEs, treatment related [1] | Headache (MedDRA preferred term), all-causality [2] | Headache, treatment related [2] | Hepatic enzyme increased, all-causality [2] | Hepatic enzyme increased, treatment related [2] | Number of AEs, all-causality treatment-emergent [3] | Number of AEs, treatment related [3] | Number of subjects with AEs, all-causality [3] | Number of subjects with AEs, treatment related [3] | Fatigue (MedDRA preferred term), all-causality [4] | Fatigue, treatment related [4] | Insomnia, all-causality [5] | Insomnia, treatment related [5] | Fatigue (MedDRA preferred term), all-causality [6] | Fatigue, treatment related [6] | Headache (MedDRA preferred term), all-causality [6] | Headache, treatment related [6] | Hepatic enzyme increased, all-causality [7] | Hepatic enzyme increased, treatment related [7] | Number of subjects with discontinuation due to AEs [7] | Number of subjects with discontinuation due to AEs, treatment related [7] | Paresthesia, all-causality [7] | Paresthesia, treatment related [7] | Fatigue (MedDRA preferred term), all-causality [12] | Fatigue, treatment related [12] | Headache (MedDRA preferred term), all-causality [14] | Headache, treatment related [14]
8: Number of subjects with AEs, all-causality [7]
7: Number of subjects with AEs, all-causality [4] | Number of AEs, treatment related [6] | Number of subjects with AEs, treatment related [7] | Number of AEs, all-causality treatment-emergent [12]

Reference: publication PMC6839502 (Journal of Alzheimer's Disease, 2019)
